Tests used:
Assay type in all cases: in vivo
[1] = system: directly sown rice; experiment: Test Example 4: foliar treatment, effect on crop; b: directly sown rice; settings: treatment dosage 315 g/ha
Procedure, shortened: (§1)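 Seeds are spot-sown into sterilized diluvial soil and covered with about 1.5 cm of soil. After 14 days' greenhouse growth at 25 to 30° C, plants are sprayed on stems and leaves with diluted emulsion at the stated g/ha rate, then scored at 3 weeks.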

[2] = system: corn; experiment: Test Example 4: foliar treatment, effect on crop; c: corn; settings: treatment dosage 315 g/ha
Procedure, shortened: as §1

[3] = system: green foxtail; experiment: Test Example 4: weedkilling efficacy by foliar treatment; E: green foxtail; settings: treatment dosage 315 g/ha
Procedure, shortened: as §1

[4] = system: catchweed; experiment: Test Example 3: weedkilling efficacy through soil treatment; O: catchweed; settings: treatment dosage 315 g/ha
Procedure, shortened: (§2)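 Crop and weed responses were judged three weeks after a uniform surface spray of the water-diluted emulsion at the given g/ha rate. Seeds sat beneath about 1.5 cm of sterilized diluvial soil, and boxes stood in a greenhouse at 25 to 30° C.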

[5] = system: wild oat; experiment: Test Example 3: weedkilling efficacy through soil treatment; G: wild oat; settings: treatment dosage 315 g/ha
Procedure, shortened: as §2

[6] = system: black-grass; experiment: Test Example 3: weedkilling efficacy through soil treatment; H: black-grass; settings: treatment dosage 315 g/ha
Procedure, shortened: as §2

[7] = system: chickweed; experiment: Test Example 3: weedkilling efficacy through soil treatment; N: chickweed; settings: treatment dosage 315 g/ha
Procedure, shortened: as §2

[8] = system: fig-leafed goosefoot; experiment: Test Example 3: weedkilling efficacy through soil treatment; M: fig-leafed goosefoot; settings: treatment dosage 315 g/ha
Procedure, shortened: as §2

[9] = system: bulrush; experiment: Test Example 2: weedkilling efficacy, growth period weed treatment in the submerged state; B: bulrush; settings: treatment dosage 252 g/ha
Procedure, shortened: (§3)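 Seedlings at 1-2 leaves in 4 cm-deep submerged alluvial soil received emulsion formulations on the water surface, dosed per hectare; effects were judged 3 weeks on.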

[10] = system: Italian ryegrass; experiment: Test Example 4: weedkilling efficacy by foliar treatment; I: Italian ryegrass; settings: treatment dosage 315 g/ha
Procedure, shortened: as §1

[11] = system: directly sown rice; experiment: Test Example 3: soil treatment, effect on crop; b: directly sown rice; settings: treatment dosage 315 g/ha
Procedure, shortened: as §2

[12] = system: beet; experiment: Test Example 4: foliar treatment, effect on crop; f: beet; settings: treatment dosage 315 g/ha
Procedure, shortened: as §1

[13] = system: Indian mallow; experiment: Test Example 4: weedkilling efficacy by foliar treatment; K: Indian mallow; settings: treatment dosage 315 g/ha
Procedure, shortened: as §1

[14] = system: Indian mallow; experiment: Test Example 3: weedkilling efficacy through soil treatment; K: Indian mallow; settings: treatment dosage 315 g/ha
Procedure, shortened: as §2

[15] = system: Italian ryegrass; experiment: Test Example 3: weedkilling efficacy through soil treatment; I: Italian ryegrass; settings: treatment dosage 315 g/ha
Procedure, shortened: as §2

[16] = system: crabgrass; experiment: Test Example 4: weedkilling efficacy by foliar treatment; D: crabgrass; settings: treatment dosage 315 g/ha
Procedure, shortened: as §1

[17] = system: chickweed; experiment: Test Example 4: weedkilling efficacy by foliar treatment; N: chickweed; settings: treatment dosage 315 g/ha
Procedure, shortened: as §1

[18] = system: birds-eye speedwell; experiment: Test Example 3: weedkilling efficacy through soil treatment; p: birds-eye speedwell; settings: treatment dosage 315 g/ha
Procedure, shortened: as §2

[19] = system: oval-leafed pondweed; experiment: Test Example 1: weedkilling efficacy, preemergent weed treatment in the submerged state; C: oval-leafed pondweed; settings: treatment dosage 252 g/ha
Procedure, shortened: (§4)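 Submerged pre-emergence treatment, water-surface application of compound emulsion at g/ha dosages; 4 cm flooded alluvial soil, weeds sown and 2.5-leaf rice transplanted same day. Rated after 3 weeks, greenhouse.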

[20] = system: soybean; experiment: Test Example 4: foliar treatment, effect on crop; d: soybean; settings: treatment dosage 315 g/ha
Procedure, shortened: as §1

[21] = system: soybean; experiment: Test Example 3: soil treatment, effect on crop; d: soybean; settings: treatment dosage 315 g/ha
Procedure, shortened: as §2

[22] = system: barnyard grass; experiment: Test Example 2: weedkilling efficacy, growth period weed treatment in the submerged state; A: barnyard grass; settings: treatment dosage 252 g/ha
Procedure, shortened: as §3

[23] = system: redroot pigweed; experiment: Test Example 3: weedkilling efficacy through soil treatment; L: redroot pigweed; settings: treatment dosage 315 g/ha
Procedure, shortened: as §2

[24] = system: catchweed; experiment: Test Example 4: weedkilling efficacy by foliar treatment; O: catchweed; settings: treatment dosage 315 g/ha
Procedure, shortened: as §1

[25] = system: wheat; experiment: Test Example 3: soil treatment, effect on crop; e: wheat; settings: treatment dosage 315 g/ha
Procedure, shortened: as §2

[26] = system: green foxtail; experiment: Test Example 3: weedkilling efficacy through soil treatment; E: green foxtail; settings: treatment dosage 315 g/ha
Procedure, shortened: as §2

[27] = system: redroot pigweed; experiment: Test Example 4: weedkilling efficacy by foliar treatment; L: redroot pigweed; settings: treatment dosage 315 g/ha
Procedure, shortened: as §1

[28] = system: corn; experiment: Test Example 3: soil treatment, effect on crop; c: corn; settings: treatment dosage 315 g/ha
Procedure, shortened: as §2

[29] = system: transplanted rice; experiment: Test Example 1: preemergent weed treatment in the submerged state, effect on crop; a: transplanted rice; settings: treatment dosage 252 g/ha
Procedure, shortened: as §4

[30] = system: fig-leafed goosefoot; experiment: Test Example 4: weedkilling efficacy by foliar treatment; M: fig-leafed goosefoot; settings: treatment dosage 315 g/ha
Procedure, shortened: as §1

[31] = system: barnyard grass; experiment: Test Example 1: weedkilling efficacy, preemergent weed treatment in the submerged state; A: barnyard grass; settings: treatment dosage 252 g/ha
Procedure, shortened: as §4

[32] = system: crabgrass; experiment: Test Example 3: weedkilling efficacy through soil treatment; D: crabgrass; settings: treatment dosage 315 g/ha
Procedure, shortened: as §2

[33] = system: wheat; experiment: Test Example 4: foliar treatment, effect on crop; e: wheat; settings: treatment dosage 315 g/ha
Procedure, shortened: as §1

[34] = system: black-grass; experiment: Test Example 4: weedkilling efficacy by foliar treatment; H: black-grass; settings: treatment dosage 315 g/ha
Procedure, shortened: as §1

[35] = system: wild oat; experiment: Test Example 4: weedkilling efficacy by foliar treatment; G: wild oat; settings: treatment dosage 315 g/ha
Protocol: Testing of Weedkilling Efficacy by Foliar Treatment
Sterilized diluvial soil was introduced into 21 cm long, 13 cm wide, 7 cm deep plastic boxes, and seeds of crabgrass, green foxtail, barnyard grass, wild oat, black-grass, Italian ryegrass, common wind-grass, Indian mallow, redroot pigweed, fig-leafed goosefoot, chickweed, catchweed, birds-eye speedwell, corn, soybean, rice, wheat, beet and rapeseed were each spot-sown, and covered with about 1.5 cm of soil, then the plants were grown in a greenhouse at 25 to 30° C.
After they had grown for 14 days, emulsions of compounds of the present invention prepared according to compounding example 2 were diluted with water to give the specified dosages, and applied uniformly onto the stem and leaf parts with a small sprayer. 3 weeks after the pesticide treatment the effect on each type of plant was investigated on the basis of the assessment criteria of test example 1.
A: barnyard grass, B: bulrush, C: oval-leafed pondweed, D: crabgrass, E: green foxtail, F: barnyard grass, G: wild oat, H: black-grass, I: Italian ryegrass, J: common wind-grass, K: Indian mallow, L: redroot pigweed, M: fig-leafed goosefoot, N: chickweed, O: catchweed, p: birds-eye speedwell, a: transplanted rice, b: directly sown rice, c: corn, d: soybean, e: wheat, f: beet, g: rapeseed
Further, pesticide dosage (g/ha) indicates the concentration regulated such that treatment was with only the stated number of grams (g), when calculated per hectare (ha).

[36] = system: oval-leafed pondweed; experiment: Test Example 2: weedkilling efficacy, growth period weed treatment in the submerged state; C: oval-leafed pondweed; settings: treatment dosage 252 g/ha
Procedure, shortened: as §3

[37] = system: bulrush; experiment: Test Example 1: weedkilling efficacy, preemergent weed treatment in the submerged state; B: bulrush; settings: treatment dosage 252 g/ha
Procedure, shortened: as §4

In the case of `CC1=C(c2ccccc2)C(=O)N(C(C)(C)C(=O)Nc2cccc(C(F)(F)F)n2)CO1` [B-2-58], the “b (directly sown rice) effect on crop grade” value [1] was 4 (weed kill ratio 70% or more, less than 90%), the “c (corn) effect on crop grade” value [2] was 3 (weed kill ratio 40% or more, less than 70%) and the “E (green foxtail) weedkilling efficacy grade” value [3] was 5 (weed kill ratio 90% or more, (practically complete withering)). For the same compound, the “O (catchweed) weedkilling efficacy grade” value [4] was 0 (weed kill ratio 5% or less (practically no effect)), the “G (wild oat) weedkilling efficacy grade” value [5] was 3 (weed kill ratio 40% or more, less than 70%) and the “H (black-grass) weedkilling efficacy grade” value [6] was 4 (weed kill ratio 70% or more, less than 90%). For the same compound, the “N (chickweed) weedkilling efficacy grade” value [7] was 4 (weed kill ratio 70% or more, less than 90%), the “M (fig-leafed goosefoot) weedkilling efficacy grade” value [8] was 4 (weed kill ratio 70% or more, less than 90%) and the “B (bulrush) weedkilling efficacy grade” value [9] was 5 (weed kill ratio 90% or more, (practically complete withering)). For the same compound, the “I (Italian ryegrass) weedkilling efficacy grade” value [10] was 5 (weed kill ratio 90% or more, (practically complete withering)), the “b (directly sown rice) effect on crop grade” value [11] was 3 (weed kill ratio 40% or more, less than 70%) and the “f (beet) effect on crop grade” value [12] was 4 (weed kill ratio 70% or more, less than 90%). The “K (Indian mallow) weedkilling efficacy grade” value [13] was 3 (weed kill ratio 40% or more, less than 70%), the “K (Indian mallow) weedkilling efficacy grade” value [14] was 1 (weed kill ratio 5% or more, less than 20%) and the “I (Italian ryegrass) weedkilling efficacy grade” value [15] was 5 (weed kill ratio 90% or more, (practically complete withering)). The “D (crabgrass) weedkilling efficacy grade” value [16] was 5 (weed kill ratio 90% or more, (practically complete withering)), the “N (chickweed) weedkilling efficacy grade” value [17] was 3 (weed kill ratio 40% or more, less than 70%) and the “P (birds-eye speedwell) weedkilling efficacy grade” value [18] was 5 (weed kill ratio 90% or more, (practically complete withering)). For the same compound, the “C (oval-leafed pondweed) weedkilling efficacy grade” value [19] was 5 (weed kill ratio 90% or more, (practically complete withering)), the “d (soybean) effect on crop grade” value [20] was 3 (weed kill ratio 40% or more, less than 70%) and the “d (soybean) effect on crop grade” value [21] was 0 (weed kill ratio 5% or less (practically no effect)). The “A (barnyard grass) weedkilling efficacy grade” value [22] was 3 (weed kill ratio 40% or more, less than 70%), the “L (redroot pigweed) weedkilling efficacy grade” value [23] was 3 (weed kill ratio 40% or more, less than 70%) and the “O (catchweed) weedkilling efficacy grade” value [24] was 1 (weed kill ratio 5% or more, less than 20%). The “e (wheat) effect on crop grade” value [25] was 0 (weed kill ratio 5% or less (practically no effect)), the “E (green foxtail) weedkilling efficacy grade” value [26] was 5 (weed kill ratio 90% or more, (practically complete withering)) and the “L (redroot pigweed) weedkilling efficacy grade” value [27] was 3 (weed kill ratio 40% or more, less than 70%). For the same compound, the “c (corn) effect on crop grade” value [28] was 1 (weed kill ratio 5% or more, less than 20%), the “a (transplanted rice) effect on crop grade” value [29] was 0 (weed kill ratio 5% or less (practically no effect)) and the “M (fig-leafed goosefoot) weedkilling efficacy grade” value [30] was 3 (weed kill ratio 40% or more, less than 70%). The “A (barnyard grass) weedkilling efficacy grade” value [31] was 5 (weed kill ratio 90% or more, (practically complete withering)), the “D (crabgrass) weedkilling efficacy grade” value [32] was 5 (weed kill ratio 90% or more, (practically complete withering)) and the “e (wheat) effect on crop grade” value [33] was 1 (weed kill ratio 5% or more, less than 20%). The “H (black-grass) weedkilling efficacy grade” value [34] was 5 (weed kill ratio 90% or more, (practically complete withering)), the “G (wild oat) weedkilling efficacy grade” value [35] was 3 (weed kill ratio 40% or more, less than 70%) and the “C (oval-leafed pondweed) weedkilling efficacy grade” value [36] was 4 (weed kill ratio 70% or more, less than 90%). For the same compound, the “B (bulrush) weedkilling efficacy grade” value [37] was 5 (weed kill ratio 90% or more, (practically complete withering)).
